How the values were obtained:
rat MAO-A [1] = conditions: mitochondrial rat brain; cited from earlier work
rat MAO-B [2] = conditions: mitochondrial rat brain; cited from earlier work
hMAO-A = biological target: T1, hMAO-A (Homo sapiens, UniProt P21397); experiment: Recombinant human MAO-A inhibition screening (Amplex Red, p-tyramine); assay type: biochemical
T1 construct: purchased Sigma-Aldrich; host or cells: insect cells (BTI-TN-5B14) infected with recombinant baculovirus
T1 sequence (P21397 1-527): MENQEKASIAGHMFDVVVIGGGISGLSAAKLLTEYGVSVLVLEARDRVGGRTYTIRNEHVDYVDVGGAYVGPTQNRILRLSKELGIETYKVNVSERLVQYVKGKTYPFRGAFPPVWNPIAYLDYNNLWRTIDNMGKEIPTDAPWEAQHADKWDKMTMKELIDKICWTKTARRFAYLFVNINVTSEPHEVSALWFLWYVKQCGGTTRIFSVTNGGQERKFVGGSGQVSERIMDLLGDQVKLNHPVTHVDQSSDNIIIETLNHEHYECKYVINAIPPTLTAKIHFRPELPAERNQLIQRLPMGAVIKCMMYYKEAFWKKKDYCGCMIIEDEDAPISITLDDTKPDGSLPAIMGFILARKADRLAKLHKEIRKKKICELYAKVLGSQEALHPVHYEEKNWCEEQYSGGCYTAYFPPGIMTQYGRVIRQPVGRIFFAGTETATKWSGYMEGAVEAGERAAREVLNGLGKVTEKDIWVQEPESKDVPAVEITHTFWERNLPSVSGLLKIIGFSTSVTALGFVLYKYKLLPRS
From the text: (§1) To evaluate IC50 values for the inhibition of human MAO-A and MAO-B by newly synthesized compounds the commercially available recombinant human enzymes expressed in insect cells were used (Sigma-Aldrich). The MAO inhibition assay was based on the method described by Anderson et al., 1993 and Chimenti et al. with some modifications. The Amplex Red MAO Kit tyramine (Sigma-Aldrich) affords a suitable fluorimetric method to evaluate MAO enzyme action of synthetic and natural compounds. In the assay, MAO reacts with p-tyramine, a common substrate for both MAO isoforms, ensuing in the production of H2O2, which is identified by a fluorimetric method (λex = 530/λem = 585 nm). Each test well contained 0.1 mL of sodium phosphate buffer (0.05 M, pH 7.4), a range of concentrations of the eugenol based derivatives or reference compounds along with recombinant hMAO-A or hMAO-B in appropriate quantity. After the preparation of this mixture the wells were subjected to incubation for 15 min at 37 °C, placed in the dark fluorimeter chamber. Once this incubation period over, the process was rendered by mixing 200 µM Amplex Red reagent (Sigma-Aldrich), 1 U/mL horseradish peroxidase (Sigma-Aldrich) and p-tyramine (Sigma-Aldrich). Subsequently, the formation of hydrogen peroxide exerted by MAO isoforms was quantified by using Amplex-Red reagent, a non-fluorescent probe that reacts with H2O2 in the existence of horse radish peroxidase to generate the fluorescent component resorufin. Moreover, the control analysis was calculated in the absence of compound and reference inhibitors. The probability of compounds to change the fluorescence produced in the reaction mix due to non-enzymatic inhibition was assessed by mixing titled compounds to solutions of single Amplex Red reagent in a sodium phosphate buffer. Data were processed in Microsoft Excel, to calculate IC50 values.

hMAO-B [3] = biological target: T2, hMAO-B (Homo sapiens, UniProt P27338); experiment: Recombinant human MAO-B inhibition screening (Amplex Red, p-tyramine); assay type: biochemical; conditions: p-tyramine substrate, mean SEM
T2 construct: purchased Sigma-Aldrich; host or cells: insect cells (BTI-TN-5B14) infected with recombinant baculovirus
T2 sequence (P27338 1-520): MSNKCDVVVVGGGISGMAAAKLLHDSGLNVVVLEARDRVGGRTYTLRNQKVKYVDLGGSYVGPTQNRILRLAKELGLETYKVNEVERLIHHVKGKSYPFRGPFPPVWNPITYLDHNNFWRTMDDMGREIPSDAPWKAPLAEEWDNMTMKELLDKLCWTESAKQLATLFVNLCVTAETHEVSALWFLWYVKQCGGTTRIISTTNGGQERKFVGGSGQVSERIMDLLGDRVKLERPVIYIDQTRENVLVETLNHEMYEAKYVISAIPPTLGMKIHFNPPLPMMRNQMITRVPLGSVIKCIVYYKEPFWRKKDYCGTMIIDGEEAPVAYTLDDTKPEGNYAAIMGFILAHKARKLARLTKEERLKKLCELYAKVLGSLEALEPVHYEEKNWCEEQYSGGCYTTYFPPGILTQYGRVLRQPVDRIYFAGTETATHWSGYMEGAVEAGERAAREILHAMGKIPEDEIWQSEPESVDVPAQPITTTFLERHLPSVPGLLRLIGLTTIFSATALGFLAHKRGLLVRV
From the text: as §1

DPPH scavenging activity = conditions: Table 6, mean ± SEM, n = 3
Description: Solutions of synthesized compounds were set in ethanol/water (1:1) having 10 mM to 100 mM at a period of 10 mM. The 0.01% DPPH· stock solution was prepared in ethanol/water (1:1). Samples were prepared as 5 mL DPPH· solution was mixed with 5 mL L-ascorbic acid solution then shaken vigorously and kept in the dark. Corresponding blank sample were prepared and L-ascorbic acid was used as reference standard. […] The actual decrease in absorption induced by the test was compared with the positive controls. The IC50 values were calculated use the dose inhibition curve in linear range by plotting the extract concentration versus the corresponding scavenging effect through following equation [(ADR − APR)/AO] × 100. Where ADR is the absorbance prior to reaction and APR is the absorbance after reaction with DPPH·.

[4] = Hydrogen peroxide scavenging (H2O2) assay; conditions: Table 7, mean ± SEM, n = 3
Description: Hydrogen peroxide generally turns into water and oxygen and produces highly toxic hydroxyl radical that renders the damage to DNA and peroxidation of lipid. H2O2 scavenging ability of eugenol based derivatives was evaluated by method described by Nakano and colleagues with some alteration. The hydrogen peroxide solution (40 mM) was prepared in phosphate buffer (40 mM pH 7.4) and addition of several ranges of synthesized derivatives (05–80 μg/mL) was done into H2O2 solution (2 mL). The determination of H2O2 concentration was done by UV/Vis Epoch ELISA reader at 230 nm upon incubation of 10 min. Solution of phosphate buffer without H2O2 was noted as blank reading. The hydrogen peroxide percentage inhibition was estimated through the formula [(AH − AD)/AO] × 100, where AH is the absorbance of the control and AD is the absorbance of compounds/reference taken as 05–80 μg/mL L-ascorbic acid.

[5] = Nitric oxide scavenging activity; conditions: Table 8, mean ± SEM, n = 3
From the text: The generation of nitric oxide (NO·) on biological tissues is mediated by particular nitric oxide synthases enzyme that control the catabolism of the arginine to citrulline via creation of NO through a five electron oxidative reaction. At the physiological pH (7.2) in aqueous solution sodium nitroprusside decompose to produce NO·. Finally, NO· reacts with oxygen at underaerobic conditions and produces stable products (nitrate and nitrite), this amount can be determined by means of Griess reagent. The procedure for the nitric oxide scavenging activity was adopted from reports of Alam et al..

[6] = Ferric reducing antioxidant power (FRAP) assay; conditions: Table 9, mean ± SEM, n = 3;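 also: Ferrous-TPTZ reduction read as absorbance at 593 nm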
Description: The capacity of antioxidants to decrease ferric iron is measured by this method. The reaction of […] (TPTZ) and complex ferric iron yields ferrous form at low pH. […] This method was adopted from the reports of Benzie et al..

human MAO-A = biological target: human MAO-A; parameters: method as in PMID 21190052; conditions: competitive inhibitor; cited from earlier work
MAO B = biological target: MAO B; parameters: method as in PMID 21190052; conditions: cited from earlier work
hMAO-B [7] = biological target: T2, hMAO-B; conditions: eugenol from Rhizoma acori graminei; cited from earlier work
rat MAO-A [8] = system: rat MAO-A; parameters: method as in PMID 28771213; conditions: Table 1, literature overview; cited from earlier work
rat MAO-B [9] = system: rat MAO-B; parameters: method as in PMID 28771213; conditions: Table 1, literature overview; cited from earlier work
mice [10] = system: mice; parameters: method as in PMID 28771213; conditions: cited from earlier work
mice [11] = system: mice; parameters: method as in PMID 28771213; conditions: repeated administration, dose-dependent; cited from earlier work
mice [12] = system: mice; parameters: method as in PMID 21190052; conditions: administered for 14 days; cited from earlier work
Swiss mouse = system: Swiss mouse; parameters: method as in PMID 28771213; conditions: controls negative and positive (imipramine); cited from earlier work

Row | SMILES | Ki (rat MAO-A [1]) | Ki (rat MAO-B [2]) | IC50 (rat MAO-A [8]) | IC50 (rat MAO-B [9]) | further results
1 | COc1ccc(C(C)=O)c(O)c1 [Paeonol] | 51.1 µM | 54.6 µM | – | – | –
2 | C=CCc1ccc(O)c(OC)c1 [Eugenol] | 25.7 µM | 79.9 µM | 5.34 ± 0.065 µM | 24 ± 1.32 µM | Selectivity index (hMAO-A; IC50 (MAO-A)/IC50 (MAO-B)): 1.24; IC50 (hMAO-A; recombinant hMAO-A, p-tyramine substrate, mean SEM): 16.54 ± 0.045 µM; IC50 (hMAO-B [3]): 13.3 ± 0.037 µM; DPPH scavenging IC50 (DPPH scavenging activity): 10.29 ± 0.011 µg/mL; H2O2 scavenging IC50 [4]: 9.980 ± 0.012 µg/mL; Nitric oxide scavenging IC50 [5]: 11.724 ± 0.003 µg/mL; FRAP IC50 [6]: 10.627 ± 0.082 µg/mL; Ki (human MAO-A): 25 µM; Ki (MAO B): 211 µM; Ki (hMAO-B [7]): 15 µM; LD50 (mice [10]): 4500 mg/kg; Immobility in the FST and tail suspension test (TST) (mice [11]): decreased immobility; Forced swim test (FST) score (mice [12]): significantly increased
3 | C=CCc1ccc(O)c(-c2ccc(O)c(CC=C)c2)c1 [Honokiol] | 38.2 µM | 54.6 µM | – | – | –
4 | CC1CCC(C(C)C)C(O)C1 (centres unmarked) [Menthol] | – | – | 23.1 ± 0.35 µM | 37.4 ± 0.76 µM | –
5 | C=CCc1ccc(O)c(-c2cc(CC=C)ccc2O)c1 [Magnolol] | 35.4 µM | 49.3 µM | – | – | –
6 | Cc1ccc(C(C)C)cc1O [Carvacrol] | – | – | 15.6 ± 0.49 µM | 23.42 ± 0.04 µM | –
7 | C=CCc1ccc(OC)c(OC)c1 [Methyl-eugenol] | – | – | 7.12 ± 0.46 µM | 43.23 ± 0.054 µM | –
8 | COc1cc(C=O)ccc1O [Vanillin] | – | – | 17.88 ± 0.16 µM | 45.34 ± 0.09 µM | Observations in behavioral test (FST) (Swiss mouse): Controls: negative and positive (imipramine) The treatment reduced the spontaneous locomotion

— publication PMC6661809, “Lead optimization for promising monoamine oxidase inhibitor from eugenol for the treatment of neurological disorder: synthesis and in silico based study” (BMC Chemistry, 2019)
